One experiment relates to adult murine heart. The experiment can be described thus: Transthoracic echocardiography after T3/β1-adrenergic receptor blocker therapy. It counts as in vivo, mouse. To be noted: for Ejection fraction / FW diastole / FW systole / Fractional shortening / IVS diastole / IVS systole / LV end-diastolic dimension / LV end-systolic dimension / LV mass: adult 6-month-old mice, metoprolol 6 μg/g daily i.p. 19 days and/or T3 2 ng/g i.p. 5 daily injections, 2 weeks after cessation. On the procedure: Approximately 6-month-old mice were used. […] On day-14 of this therapy, mice were additionally given 5 daily injections of T3 (2 ng/g, i.p.) or vehicle. At 2 and 4 weeks after the cessation of T3/β1-adrenergic receptor blocker mono- or combination therapy, the body weights of these mice were measured as well as their cardiac dimensions and function using transthoracic echocardiography.
Experiments were performed to determine whether reversal of cell cycle block using β1-blockade coupled with acute T3 treatment may be sufficient to expand the cardiomyocyte endowment of the adult murine heart. […] Two weeks after cessation of these therapies LV dimensions and contractility were analyzed by echocardiography as well as ventricular cardiomyocyte numbers.

Experiment [1] relates to ventricular cardiomyocytes. The experiment can be described thus: Ventricular cardiomyocyte numbers after T3/metoprolol therapy in adult mice. In kind it is in vivo, mouse. To be noted: adult 6-month-old mice; metoprolol 6 μg/g daily i.p. 19 days and/or T3 2 ng/g i.p. 5 daily injections; 2 weeks after cessation. The source says:
Digestion efficiencies were ˜98%. Cardiomyocytes in these cell suspensions, identified by their size and by rod shape, were counted using a hemocytometer. […]

For the next experiment, the system named is cyclins D1, A2 and B1. The experiment can be described thus: Acute in vivo T3 challenge: cyclin expression by immunoblotting. Also noted: species or system mouse. As to the method: (§1) T3 was administered, intraperitoneally, to each mouse at the dose indicated. Vehicle was administered by the same route and animals thus treated served as controls. Phosphate buffered saline (PBS) was the vehicle for T3, and soybean oil (Sigma, S7381) was the vehicle for 4-hydroxytamoxifen. […] P7 and older mice were first anesthetized with 5% isoflurane and then hearts were harvested for further processing. Hearts were also collected at 12, 24 and 40 h after T3 or vehicle treatment and ventricular cardiomyocytes were prepared from the apex and base for immunoblotting, RT-qPCR or immunocytochemistry. Hearts were also collected at various ages after birth for immunoblotting, immunocytochemistry, immunohistochemistry and cardiomyocyte number estimation.
An acute in vivo T3 challenge was used to identify post-neonatal LV cardiomyocytes that retain proliferative capacity. Increases in myocardial cell cycle-promoting cyclins was explored as a surrogate for identifying cardiomyocytes that are able to enter the cell cycle.

Experiment [2] relates to LV cardiomyocytes. The experiment can be described thus: Immunocytochemistry for S phase (EdU) and mitosis (pH3) after in vivo T3. Further details: species or system mouse. As to the method: as §1, with “4-hydroxytamoxifen. DUSP5 or β1-adrenergic receptor-specific siRNA or scrambled siRNA (control) was administered using in vivo-jetPEI®, (VWR, 89129-960).” for “4-hydroxytamoxifen.”
Experiments were performed to determine whether T3-stimulated cell cycle entry in LV apical cardiomyocytes ends in mitosis and cell replication.

Experiment [3] deals with ventricular cardiomyocytes. Kind of experiment: Ventricular cardiomyocyte count in early post-neonatal mice after T3. In kind it is in vivo, mouse. As to the method:
To determine the effect of T3 on the ventricular cardiomyocyte population in early post-neonatal mice, T3 daily (i. p.), was administered from P7 to P9. At P12, hearts were enzymatically disaggregated and cell suspensions created from the cardiac ventricles. Digestion efficiencies were ˜98%. Cardiomyocytes in these cell suspensions, identified by their size and by rod shape, were counted using a hemocytometer. T3 increased ventricular cardiomyocyte numbers by ˜18% (FIG. 2D), which indicates an average replication rate of 3.6%/day between P7 and P12.

In experiment [4] the test system is IGF-1/IGF-1R, MEK1/2, ERK1/2. The experiment can be described thus: T3 proliferative signaling in P8 LV apical and basal cardiomyocytes (immunoblotting). It counts as in vivo, mouse. On the procedure: as §1, with “4-hydroxytamoxifen. DUSP5 or β1-adrenergic receptor-specific siRNA or scrambled siRNA (control) was administered using in vivo-jetPEI®, (VWR, 89129-960).” for “4-hydroxytamoxifen.”
Proliferative signaling by growth factors involves Ras/Raf/mitogen-activated protein kinase (MAPK) kinase (MEK)/extracellular signal-regulated kinase (ERK) signaling. MEK1/2 activate ERK1/2 by phosphorylating T202 and Y204, which is required for ERK1/2 translocation to the nucleus. Sustained ERK1/2 phosphorylation in the nucleus activates multiple transcription factors ultimately resulting in effector protein synthesis and cell proliferation. A single dose of T3 was administered to P8 mice, and cardiomyocytes were isolated from the LV apex or base either immediately after T3 administration (0 h) or after 24 h. […] However, the fraction of nuclear ERK1/2 that remained phosphorylated at 24 h post-T3 treatment was ˜70% lower in LV basal cardiomyocytes (FIG. 4A).

Experiment [5] deals with LV cardiomyocytes. To be noted: T3 daily over 3 days (P7-P9); same mouse heart.
From the text: To determine if LV apical cardiomyocytes undergo cell replication, multicolor clonal analysis was used in double-transgenic Myh6-MerCreMer::Rosa26fs-Confetti mice to record the proliferative strategies of individual cardiomyocytes of the apex relative to those of the base.
[6] abbreviates: LV apex cardiomyocytes, post-P8, in vivo T3.
[7] abbreviates: LV basal cardiomyocytes, in vivo T3.

`COCCc1ccc(OCC(O)CNC(C)C)cc1` (stereo not drawn) [Metoprolol, metoprolol succinate]: in the experiment with adult murine heart, the Ejection fraction is 55.4 ± 1.8%, the FW diastole is 0.92 ± 0.02 mm, the FW systole worked out at 1.20 ± 0.03 mm and the Fractional shortening is recorded as 23.4 ± 0.6%. In addition, in the experiment on adult murine heart, the IVS diastole was determined as 0.96 ± 0.02 mm, the IVS systole is 1.29 ± 0.02 mm, the LV end-diastolic dimension was determined as 3.53 ± 0.07 mm and the LV end-systolic dimension is reported as 2.71 ± 0.06 mm. For the same compound, in the experiment with adult murine heart, the LV mass is listed as 113 ± 2 mg. Further, in experiment [1], the “Cardiomyocyte numbers, (millions) [n]” value was determined as 2.44 ± 0.026 millions.

On to `N[C@@H](Cc1cc(I)c(Oc2ccc(O)c(I)c2)c(I)c1)C(=O)O` [T3, 3,3′,5-triiodo-L-thyronine], for which, in the experiment on adult murine heart, the Ejection fraction is given as 55.7 ± 1.4^NS %, the FW diastole is listed as 0.87 ± 0.01^NS mm, the FW systole is 1.19 ± 0.03^NS mm and the Fractional shortening was 24.8 ± 1.4^NS %. Moreover, in the experiment on adult murine heart, the IVS diastole was 0.94 ± 0.01^NS mm, the IVS systole is 1.29 ± 0.02^NS mm, the LV end-diastolic dimension is reported as 3.60 ± 0.03^NS mm and the LV end-systolic dimension was 2.70 ± 0.05^NS mm. Moreover, the LV mass in the experiment with adult murine heart is 110 ± 2^NS mg. In addition, in the experiment with adult murine heart (vehicle pretreated adult mice), the “effect on body weight, ventricular cardiomyocyte numbers, LV mass or any measured LV dimension” value is “did not significantly affect”. The “Cardiomyocyte numbers, (millions) [n]” value in experiment [1] is 2.33 ± 0.039^NS millions. Moreover, the “T3 increase of cyclins D1/A2/B1, more in apical than in basal cardiomyocytes” value in the experiment on cyclins D1, A2 and B1 (P8 hearts, LV apical vs basal cardiomyocytes) is 2-5 fold. Besides, the “expression of cyclins D1, A2 and B1, higher in the LV apex than in the base” value with cyclins D1, A2 and B1 (P8 mice, 40 h after in vivo T3 challenge, LV myocardium) is recorded as 2.5-100 fold. The “T3 effect on cyclins in apical or basal cardiomyocytes” value in the experiment with cyclins D1, A2 and B1 (P16 cardiomyocytes) is given as “did not increase cyclins”. Besides, in the experiment on cyclins D1, A2 and B1 (neonatal hearts), the “T3 effect on cyclins D1/A2/B1 in LV apical and basal cardiomyocytes” value is “increased cyclins D1/A2/B1 similarly in LV apical and basal cardiomyocytes”. Besides, the “T3-stimulated expression of cyclins D1, A2 and B1, lower in basal cardiomyocytes” value in the experiment with cyclins D1, A2 and B1 (post-neonatal basal vs apical cardiomyocytes, 40 h after T3) is given as 2-3 fold. Further, in the experiment with LV cardiomyocytes [2] (setting [6]), the “number of cardiomyocytes in S phase (EdU+)” value is “increased the number of cardiomyocytes in S phase” and the “number of cardiomyocytes in mitosis (pH3+)” value is given as “increased”. Further, in the experiment on LV cardiomyocytes [2] (setting [7]), the “S phase in LV basal cardiomyocytes” value was “an increase in S phase was observed” and the “mitosis in LV basal cardiomyocytes” value is “did not enter mitosis”. Besides, in experiment [3] (T3 daily i.p. P7 to P9, counted at P12), the “increase in ventricular cardiomyocyte numbers” value is given as around 18%. Moreover, in experiment [3] (between P7 and P12), the average replication rate was 3.6 %/day. Further, the “fraction of nuclear ERK1/2 that remained phosphorylated, lower in LV basal cardiomyocytes” value in experiment [4] (24 h post-T3 treatment, P8 mice, basal vs apical) was around 70%. Also, the “MEK1/2 phosphorylation and nuclear translocation of ERK1/2” value in experiment [4] (P8 mice, single dose T3, 24 h, similarly in apical and basal cardiomyocytes) is “increased MEK1/2 phosphorylation”. Further, the “T3-stimulated expression of IGF-1/IGF-1R” value in experiment [4] (post-neonatal basal vs apical cardiomyocytes) is “comparable in basal and apical cardiomyocytes”. The “increase in frequency of monochromatic cardiomyocyte clusters in the LV apex relative to the base” value in the experiment with LV cardiomyocytes [5] was around 6.5 fold.

The values above are taken from patent publication US12295930B2, “Inducing proliferation of cardiomyocytes and therapeutic uses related thereto” (Emory University, priority 2018, dated 2025).
